Assay results as given in US20210253651A1, “METHOD FOR PRODUCING ORGANIC COMPOUND-ENCAPSULATING FERRITIN” (Ajinomoto Co., Inc., priority 2018, published 2021).
Structures can show the parent of a compound that is named as a salt.

Columns and labels:
Type in all cases: physicochemical
FTH ferritin [1] = target: T1, FTH ferritin (Homo sapiens, UniProt P02794); experiment: one-step process incorporation of DOX into FTH ferritin; conditions: for incorporation efficiency of the reagent: FTH ferritin 1 mg/mL; for number of molecules of DOX incorporated into one molecule of FTH ferritin: presumed, average
T1 construct: made in house; host or cells: Escherichia coli BL21 (DE3), plasmid pET20-FTH
T1 sequence (P02794 whole entry): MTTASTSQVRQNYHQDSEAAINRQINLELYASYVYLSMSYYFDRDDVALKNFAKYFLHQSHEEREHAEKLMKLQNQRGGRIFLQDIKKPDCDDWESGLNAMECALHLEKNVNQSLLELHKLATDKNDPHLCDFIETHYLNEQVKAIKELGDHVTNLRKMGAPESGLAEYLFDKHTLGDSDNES
Method: (§1) In this reaction, an acetate buffer was used for pH 3, 4, 5 and 6, while Tris-HCl buffer was used for pH 7, 8 and 9. After the standing, 0.5 mL of water was added to the resulting solution. After the resulting solution was centrifuged (at 15,000 rpm for one minute), the supernatant was injected into a desalting column PD-10 (Sephadex G-25 filled product, GE Healthcare Inc.) equilibrated with 10 mM Tris-HCl buffer (pH 8) to separate the protein from a reagent that was not encapsulated. Whole amount (3.5 mL) of the resulting solution was concentrated to 0.1 mL by centrifugal ultrafiltration using Vivaspin 20-100K (GE Healthcare Inc.), and then absorbances at 280 nm and 480 nm were measured using spectrophotometer (DU-800, Beckman Coulter Inc.).
as §1, with “After” for “In this reaction, an acetate buffer was used for pH 3, 4, 5 and 6, while Tris-HCl buffer was used for pH 7, 8 and 9. After”, “into the” for “into a”
After the standing, 0.5 mL water was added to the resulting solution. After the resulting solution was centrifuged (at 15,000 rpm for one minute), the supernatant was injected into the desalting column PD-10 (Sephadex G-25 filled product, GE Healthcare Inc.) equilibrated with 10 mM Tris-HCl buffer (pH 8) to separate the protein from a reagent that was not encapsulated. Whole amount (3.5 mL) of the resulting solution was concentrated by centrifugal ultrafiltration using Vivaspin 20-100K (GE Healthcare Inc.). Glycine-HCl buffer (pH 2.3) was added to the resulting solution to achieve a final concentration of 100 mM, then a volume was controlled to 0.2 mL. […] The absorbance at 480 nm was measured using spectrophotometer (DU-800, Beckman Coulter Inc.) for the resulting solution in order to determine the concentration of DOX. The concentration of protein in the solution was determined using the protein assay CBB solution (Nacalai Tesque, Inc.) as well as bovine albumin as a standard.
After the standing, 0.5 mL water was added to the resulting solution. After the resulting solution was centrifuged (at 15,000 rpm for one minute), the supernatant was injected into the desalting column PD-10 (Sephadex G-25 filled product, GE Healthcare Inc.) equilibrated with 10 mM Tris-HCl buffer (pH 8) to separate the protein from a reagent that was not encapsulated. Whole amount (3.5 mL) of the resulting solution was concentrated by centrifugal ultrafiltration using Vivaspin 20-100K (GE Healthcare Inc.). Glycine-HCl buffer (pH 2.3) was added to the resulting solution to achieve a final concentration of 100 mM, then a volume was controlled to 0.5 mL. The absorbance at 480 nm was measured using spectrophotometer (DU-800, Beckman Coulter Inc.) for the resulting solution in order to determine the concentration of DOX. The concentration of protein in the solution was determined using the protein assay CBB solution (Nacalai Tesque, Inc.) as well as bovine albumin as a standard.

FTH ferritin [2] = target: T1, FTH ferritin; experiment: one-step process incorporation of small molecule agents into FTH ferritin; conditions: pH of buffer giving the largest amount of incorporation within ferritin
Method: All of the reactions were performed in 0.1 mL volume. […] The absorbances were measured using spectrophotometer (DU-800, Beckman Coulter Inc.) for these solutions, and the concentration of contained protein was determined using the protein assay CBB solution (Nacalai Tesque, Inc.) as well as bovine albumin as a standard. Absorbances at 280 nm and 480 nm were measured for Rhodamine B and Congo Red. […] Then, after the absorbances were calibrated based on the absorbances that were derived from the proteins and presumed by the amount of contained protein quantified using the protein assay CBB solution, the concentrations of small molecule agents were determined based on the calibration curves obtained by the absorbances of the molecules. […] As a result, the one-step process enabled incorporating also the small molecule agents with different physical properties such as molecular weight and pKa simply and easily.

FTL ferritin = target: T2, FTL ferritin (Homo sapiens, UniProt P02792); experiment: one-step incorporation of DOX into FTL ferritin; conditions: pH 8, 50° C., 60 minutes, DOX 0.3 mg/L
T2 construct: made in house; host or cells: Escherichia coli BL21 (DE3), plasmid pET20-FTL
T2 sequence (P02792 whole entry): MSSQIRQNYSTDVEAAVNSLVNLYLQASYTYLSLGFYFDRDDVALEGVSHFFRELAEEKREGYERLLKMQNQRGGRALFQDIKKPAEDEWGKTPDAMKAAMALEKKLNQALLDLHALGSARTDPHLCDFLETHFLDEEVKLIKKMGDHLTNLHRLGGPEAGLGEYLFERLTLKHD
Method: The incorporation of the reagent into L chain reagent was carried out using the one-step process. Total synthesis was carried out for a DNA encoding a human-derived ferritin L chain (FTL (SEQ ID NO: 2)) monomer. PCR was carried out using the synthesized DNA as a template as well as the following primers: 5′-[…]-3′ (SEQ ID NO: 234) and 5′-[…]-3′ (SEQ ID NO: 235). PCR was carried out using pET20 (Merck KGaA) as a template as well as the following primers: 5′-[…]-3′ (SEQ ID NO: 5) and 5′-[…]-3′ (SEQ ID NO: 6). The resulting PCR products were purified using Wizard DNA Clean-Up System (Promega Corporation), and then subjected to In-Fusion enzyme treatment at 50° C. for 15 minutes using In-Fusion HD Cloning Kit (Takara Bio Inc.) to construct an expression plasmid (pET20-FTL) carrying a gene encoding FTL monomer.
DOX was mixed with 1 mL of 50 mM Tris-HCl buffer (pH 8) that contains each mutate FTL ferritin at a final concentration of 1 mg/mL, to achieve a final concentration of 0.3 mg/L, and then the resulting solutions were left to stand at 50° C. for 60 minutes. […] The concentration of contained protein was determined using the protein assay CBB solution (Nacalai Tesque, Inc.) as well as bovine albumin as a standard. The DOX concentration was determined based on analysis of the absorbance at 480 nm.

[3] = pH 9, 60° C., after 30 minutes, DOX 0.1 mg/mL

Structure (SMILES): COc1cccc2c1C(=O)c1c(O)c3c(c(O)c1C2=O)C[C@@](O)(C(=O)CO)C[C@@H]3OC1CC(N)C(O)C(C)O1 (stereo partly shown) [DOX, Doxorubicin hydrochloride]
- incorporation efficiency of the reagent (FTH ferritin [1]; pH 6 or less, 25° C., 60 minutes, DOX 0.1 mg/mL): ≤ 0.5 ° (wt)
- incorporation efficiency of the reagent (FTH ferritin [1]; pH 9, 25° C., 60 minutes, DOX 0.1 mg/mL): ≥ 1 % (wt)
- incorporation efficiency of the reagent (FTH ferritin [1]; pH 9, 60° C., 60 minutes, DOX 0.1 mg/mL): ≥ 5 % (wt)
- number of molecules of DOX incorporated into one molecule of FTH ferritin (FTH ferritin [1]; pH 9, 60° C., 60 minutes, at maximum incorporation): 165
- incorporation efficiency of the reagent at the maximum (FTH ferritin [1]; pH 9, 60° C., 60 minutes, concentration ratio of FTH ferritin to DOX varied (10:3 or less)): 16 % (wt)
- maximum incorporation efficiency of the reagent (FTH ferritin [1]; [3]): 5 % (wt)
- number of molecules of DOX incorporated into one molecule of FTH ferritin (FTH ferritin [1]; [3]): 50
- rate of DOX incorporation (FTH ferritin [1]; pH 9, 60° C., until 30 minutes): 1.7 mg-DOX/minute per gram of ferritin
- Optimal pH in reaction (FTH ferritin [2]): 9
- incorporation efficiency of the reagent (FTL ferritin): 7.0 % (wt)
